Assay results: patent US9212153B2, “Inhibitors of beta-secretase” (Vitae Pharmaceuticals, Inc., priority 2009, dated 2015)

Target: truncated human beta-secretase (residues 1-458, His6-tagged at the C-terminus) (Homo sapiens (Human), UniProt P56817)
Test: BACE enzyme assay (fluorescence quench, Example 434A)
Format: biochemical
Details: not given

Sequence of truncated human beta-secretase (residues 1-458, His6-tagged at the C-terminus) (P56817 22-458): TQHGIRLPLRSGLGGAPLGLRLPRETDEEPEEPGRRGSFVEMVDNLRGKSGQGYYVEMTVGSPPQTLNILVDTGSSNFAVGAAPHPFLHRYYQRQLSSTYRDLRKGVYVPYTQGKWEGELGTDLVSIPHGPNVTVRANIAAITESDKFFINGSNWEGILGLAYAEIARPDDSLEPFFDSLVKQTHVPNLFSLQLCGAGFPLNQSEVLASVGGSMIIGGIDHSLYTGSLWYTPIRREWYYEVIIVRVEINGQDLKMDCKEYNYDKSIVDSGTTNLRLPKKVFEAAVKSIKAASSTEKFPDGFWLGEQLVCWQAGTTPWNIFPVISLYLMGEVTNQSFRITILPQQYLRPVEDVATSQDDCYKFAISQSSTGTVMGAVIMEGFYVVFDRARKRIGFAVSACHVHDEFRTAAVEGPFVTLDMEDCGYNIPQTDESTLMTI

Compound | IC50
COC1CCC2(CC1)Cc1ccc(-c3cccnn3)cc1C21N=C(N)N(C)O1 (stereo not drawn) [Compound 107] | 228 nM
CN1OC2(N=C1N)c1cc(Br)ccc1C[C@@]21C[C@@H]1c1ccccc1 (stereo partly drawn) [Compound 460] | 9810 nM

Same assay, conditions: footnote a: determined according to protocols described in Example 434A

Compound | IC50 | IC50 (nM)
COC1CCC2(CC1)Cc1ccc(C#CC3CC3)cc1C21C=C(N)N(C)O1 (stereo not drawn) [Compound 3] | 4.5 nM | 
CN1OC2(C=C1N)c1cc(-c3cccc(C#N)c3)ccc1CC21CCCc2ccccc2C1 (stereo not drawn) [Compound 46] | 293 nM | 
CN1OC2(N=C1N)c1cc(Br)ccc1CC21CCc2ccccc2CC1 (stereo not drawn) [Compound 67] | 138 nM | 
CN1OC2(N=C1N)c1cc(-c3cccc(C#N)c3)ccc1CC21CCS(=O)(=O)CC1 (stereo not drawn) [Compound 459] | 693 nM | 
Cc1onc2c1CC1(CC2)Cc2ccc(Br)cc2C12N=C(N)N(C)C2=O (stereo not drawn) [Compound 461] | 16.7 nM | 
CN1C(=O)C2(N=C1N)c1cc(-c3cccc(C#N)c3)ccc1CC21Cc2cnncc2C1 (stereo not drawn) [Compound 471] | 870 nM | 
COC1CCC2(CC1)Cc1ccc(C3=CC(O)CC3)cc1C21N=C(N)N(C)C1=O (stereo not drawn) [Compound 476] |  | 33. l^a

Target: BACE (Homo sapiens (Human), UniProt P56817)
Sequence (P56817 46-501 limits assumed): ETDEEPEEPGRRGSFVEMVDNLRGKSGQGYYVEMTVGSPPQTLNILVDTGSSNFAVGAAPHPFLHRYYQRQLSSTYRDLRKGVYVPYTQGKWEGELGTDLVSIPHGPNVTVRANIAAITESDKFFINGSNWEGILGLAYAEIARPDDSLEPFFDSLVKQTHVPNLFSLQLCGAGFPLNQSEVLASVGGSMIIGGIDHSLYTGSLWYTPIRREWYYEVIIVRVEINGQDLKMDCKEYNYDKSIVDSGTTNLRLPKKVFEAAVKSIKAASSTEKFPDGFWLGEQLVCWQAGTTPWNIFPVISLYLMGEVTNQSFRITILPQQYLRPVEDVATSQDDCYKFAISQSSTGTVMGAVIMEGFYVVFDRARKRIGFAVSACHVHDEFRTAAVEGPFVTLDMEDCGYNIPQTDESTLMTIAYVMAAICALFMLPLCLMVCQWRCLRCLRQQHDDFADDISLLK
Test: BACE cell assay (H4-APPsw cells, secreted Aβ 1-40 by AlphaLISA/ELISA)
Format: cell-based
Details: in vitro cell activity
Procedure: H4 neuroglioma cell line that stably expresses Amyloid Precursor Protein (APP) containing the KM-NL Swedish mutation (H4-APPsw) was generated. For the assay, cells are treated overnight in the presence of inhibitor and the culture media are subjected to ELISA analysis of soluble Amyloid Beta 1-40 (Aβ 1-40).
H4 neuroglioma cell line was cultured in DMEM with 10% FBS and 1% penicillin/streptomycin (Culture Medium) at 37° C., 5% CO2. […] 24 hrs after transfection, the cells were replaced into three new plates (150 mm) in fresh Culture Medium with 250 ug/mL Zeocin. […] The levels of APPsw expression were analyzed by immunoblotting and the production of Aβ 1-40 was detected by ELISA of culture supernatants. The selected clones are maintained in Culture Medium with 250 μg/mL Zeocin and routinely split in 3-4 days to maintain 20-80% confluence.
Final Assay Conditions (96-Well Plate)
Day 1 Split Cells. Split H4-APPsw cells in Culture Medium and culture overnight such that cells will be ˜80% confluent next morning. Day 2 Create Compound Dilution Plate. After determining the desired final concentration of compound to be tested, create a 500× dilution plate. Add DMSO, but not inhibitor, to each well of Column 1. […] Add compounds of interest at 500× desired final concentration to wells A3-A10. Add DMSO, but not inhibitor, to each well of Columns 11 and 12. Dilute contents of Row A 1:3 in Row B, then continue through Rows C-H. Create Media Plate. To create a 2× solution of compound in media, add 996 μL Culture Medium to each well of a 96-well 2 mL deep well plate (Media Plate) in biosafety hood. Add 4 μL 5 mM control compound to Media Plate wells A1-D1 for determination of full inhibition. […] Add Media to Cell Plate. With a multichannel pipettor, mix each well of Media Plate several times to insure homogeneity. […] Next, place Medium Plate and Cell Plate in the incubator. Add cells to Cell Plate. Trypsinize and count H4-APPsw cells. […]
After 16 h incubation, spin Cell Plate for 8 min at 1200 rpm. The primary reading of Aβ 1-40 levels is done using PerkinElmer AlphaLISA technology. […]

Compound | IC50
COC1CCC2(CC1)Cc1ccc(C#CC3CC3)cc1C21C=C(N)N(C)O1 (stereo not drawn) [Compound 3] | < 100 nM
CN1OC2(C=C1N)c1cc(-c3cccc(C#N)c3)ccc1CC21CCCc2ccccc2C1 (stereo not drawn) [Compound 46] | < 10000 nM
CCOC1(F)CCC2(CC1)Cc1ccc(-c3cccc(C#N)c3)cc1C21N=C(N)N(C)O1 (stereo not drawn) [compound 49] | < 1000 nM
